According to patent EP1377579B1 (Aventis Pharmaceuticals Inc., priority 2000, dated 2002):
Counter-ions that a name gives are not always drawn. Like-named read-outs stand apart in the source and are kept apart here.

Assays:
cdk4/cyclin D1 = cdk4/cyclin D1 (Homo sapiens, UniProt P11802); assay: Cyclin-dependent kinase assay, cdk4/cyclin D1; type: biochemical; conditions: cyclin D1/cdk4; GST-pRb substrate, 10 µM ATP
MDA-MB-435 = assay: In vitro proliferation assay (MTT), MDA-MB-435; type: cell-based, human; conditions: value (SD, n) where given, read-out: MB-435 Breast (IC50 µM)
Summary of the method: (§1)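 Following 3 days of compound treatment, MTT was added and the dye dissolved in DMSO for 570 nm absorbance; IC50s derived from these raw readings. Seeding density 1000 to 2500 cells/well depending on line, with overnight recovery before dosing.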

NCI-H460 = assay: In vitro proliferation assay (MTT), NCI-H460; type: cell-based; conditions: Homo sapiens, NCI-H460; MTT assay; value (SD, n) where given; read-out: H-460 Lung (IC50 µM)
Method: (§2) The proliferation of tumor cells can be measured using a tetrazolium salt-based assay known as the MTT (3-[4,5-Dimethylthiazol-2-yl]-2,5-diphenyltetrazolium bromide) assay. The proliferation test is performed essentially as described by Carmichael et al., Cancer Res. 47: 936-942, 1987. For the assay, the cell lines are plated onto 96 well plates at 1000 to 2500 cells/well (depending on the properties of the individual cell lines), left to attach and recover overnight. […] After 3 days, the cells are incubated with MTT dye (3-[4,5-Dimethylthiazol-2-yl]-2,5-diphenyltetrazolium bromide, Sigma # M5655, 10 mg/ml in Hank's Buffered Saline) to estimate the amount of live cells remaining vs. concentration for the test compounds. Specifically, MTT solution is added to a final concentration of […] and the plates incubated at 37 C for 2 to 4 hr. The MTT and culture medium is then removed from the cultures and 200 µl of DMSO is added to solubilize the dye from the cell layer. The absorbance at 570 nm is determined for each culture using a Spectramax plate reader (Molecular Devices).
(§3) IC50s were determined from the raw data from either the MTT or SRB assays.
All of the cell lines were obtained from American Type Tissue Collection, with the ATCC accession number in parentheticals. MCF-7 and MDA-MB-231 cells were grown in improved minimum essential medium (Biofluids) without phenol red, supplemented with 5 % fetal bovine serum, 0.01 mg/ml gentamicin and 3 mM L-glutamine. All of the other cell lines were grown in RPMI 1640 medium (Life Technologies) supplemented with 5 % fetal bovine serum, 0.01 mg/ml gentamicin and 3 mM L-glutamine TABLE 3

PC-3 = assay: In vitro proliferation assay (MTT), PC-3; type: cell-based, human; conditions: value (SD, n) where given, read-out: PC-3 Prostate (IC50 µM)
Summary of the method: as §1

Colo-205 = assay: In vitro proliferation assay (MTT), Colo-205; type: cell-based; conditions: Homo sapiens, COLO 205; MTT assay; value (SD, n) where given; read-out: Colo-205 Colon (IC50 µM)
Method: as §2, §3

cdk1/cyclin B = cdk1/cyclin B (Homo sapiens, UniProt P06493); assay: Cyclin-dependent kinase assay, cdk1/cyclin B; conditions: CDK1 IC50, nM, Histone H1, 10 µM ATP
Chain of cdk1/cyclin B (P06493 whole entry): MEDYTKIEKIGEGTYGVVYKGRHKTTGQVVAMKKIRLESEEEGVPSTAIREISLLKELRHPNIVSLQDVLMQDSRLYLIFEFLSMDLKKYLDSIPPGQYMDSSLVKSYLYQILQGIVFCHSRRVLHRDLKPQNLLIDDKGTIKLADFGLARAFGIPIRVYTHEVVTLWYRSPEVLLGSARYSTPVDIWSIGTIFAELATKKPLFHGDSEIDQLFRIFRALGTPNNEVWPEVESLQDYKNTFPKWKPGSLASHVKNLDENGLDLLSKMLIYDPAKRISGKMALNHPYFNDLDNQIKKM
Chain of cdk1/cyclin B (P14635 whole entry partner): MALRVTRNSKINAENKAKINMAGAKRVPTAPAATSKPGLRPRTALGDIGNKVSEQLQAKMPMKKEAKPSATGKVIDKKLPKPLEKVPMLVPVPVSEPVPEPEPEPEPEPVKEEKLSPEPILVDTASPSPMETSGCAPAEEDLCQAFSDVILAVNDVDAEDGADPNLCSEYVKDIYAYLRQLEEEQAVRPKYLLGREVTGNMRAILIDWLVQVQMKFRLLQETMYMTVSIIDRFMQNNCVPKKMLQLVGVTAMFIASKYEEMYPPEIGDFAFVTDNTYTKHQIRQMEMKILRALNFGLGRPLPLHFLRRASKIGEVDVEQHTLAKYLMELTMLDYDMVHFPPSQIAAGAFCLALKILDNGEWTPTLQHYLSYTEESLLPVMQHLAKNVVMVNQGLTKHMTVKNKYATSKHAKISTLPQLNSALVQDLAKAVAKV

cdk2/cyclin E = cdk2/cyclin E (Homo sapiens, UniProt P24941); assay: Cyclin-dependent kinase assay, cdk2/cyclin E; conditions: CDK2 IC50, nM, GST-pRb substrate, 10 µM ATP
[1] = Homo sapiens, MDA-MB-435, MTT assay

Chain of cdk4/cyclin D1 (P11802 whole entry): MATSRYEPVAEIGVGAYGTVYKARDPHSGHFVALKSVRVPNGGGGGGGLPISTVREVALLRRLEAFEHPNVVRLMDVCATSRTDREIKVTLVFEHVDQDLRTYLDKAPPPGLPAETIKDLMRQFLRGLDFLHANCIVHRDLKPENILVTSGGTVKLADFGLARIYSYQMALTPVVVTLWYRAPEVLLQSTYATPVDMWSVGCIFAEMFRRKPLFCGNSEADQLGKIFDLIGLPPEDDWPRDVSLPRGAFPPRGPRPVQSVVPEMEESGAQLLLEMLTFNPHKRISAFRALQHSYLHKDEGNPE
Chain of cdk4/cyclin D1 (P24385 whole entry partner): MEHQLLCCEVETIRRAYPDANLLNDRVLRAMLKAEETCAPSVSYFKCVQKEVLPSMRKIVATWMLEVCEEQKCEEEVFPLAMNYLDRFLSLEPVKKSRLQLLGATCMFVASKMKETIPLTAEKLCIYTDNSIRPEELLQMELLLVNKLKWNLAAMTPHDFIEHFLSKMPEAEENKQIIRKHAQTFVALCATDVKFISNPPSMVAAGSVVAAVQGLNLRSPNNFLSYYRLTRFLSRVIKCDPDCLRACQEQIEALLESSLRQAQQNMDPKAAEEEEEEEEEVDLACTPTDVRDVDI

Compound | IC50 (cdk4/cyclin D1) [nM] | IC50 (MDA-MB-435; [1]) [µM] | IC50 (NCI-H460) [µM] | IC50 (PC-3; Homo sapiens, PC-3, MTT assay) [µM] | IC50 (Colo-205) [µM] | IC50 (cdk1/cyclin B) [nM] | IC50 (cdk2/cyclin E) [nM] | IC50 (MDA-MB-435; MTT assay, dihydrochloride) [µM] | IC50 (PC-3; MTT assay, dihydrochloride) [µM]
CC(CC(=O)N1CCC(Nc2nc(N[C@H]3CC[C@H](N)CC3)nc3c2ncn3C2CCCC2)CC1)CC(C)(C)C (mixture of isomers) [compound 45, (±)-trans-1-{4-[2-(4-Amino-cyclohexylamino)-9-cyclopentyl-9H-purin-6-ylamino]-piperidin-1-yl}-3,5,5-trimethyl-hexan-1-one dihydrochloride] | 485 | 0.31 | 0.28 | 0.45 | < 0.02 | 76 | 154 | – | –
CCC(C(=O)N1CCC(Nc2nc(N[C@H]3CC[C@H](N)CC3)nc3c2ncn3C2CCCC2)CC1)c1ccccc1 (relative stereo) [compound 41, trans-1-{4-[2-(4-Amino-cyclohexylamino)-9-cyclopentyl-9H-purin-6-ylamino]-piperidin-1-yl}-2-phenyl-butan-1-one dihydrochloride] | 404 | 0.3 | 0.31 | 0.38 | 0.11 | 59 | 93 | – | –
N[C@H]1CC[C@H](Nc2nc(NC3CCN(C(=O)c4ccc(F)cc4)CC3)c3ncn(C4CCCC4)c3n2)CC1 [compound 1, trans-1-{4-[2-(4-Amino-cyclohexylamino)-9-cyclopentyl-9H-purin-6-ylamino]-piperidin-1-yl}-1-(4-fluoro-phenyl)-methanone dihydrochloride] | 555 | 0.69 | > 50 | 0.78 | > 50 | 64 | 98 | – | –
N[C@H]1CC[C@H](Nc2nc(NC3CCN(C(=O)c4ccc(C(F)(F)F)cc4)CC3)c3ncn(C4CCCC4)c3n2)CC1 [compound 2, trans-1-{4-[2-(4-Amino-cyclohexylamino)-9-cyclopentyl-9H-purin-6-ylamino]-piperidin-1-yl}-1-(4-trifluoromethyl-phenyl)-methanone dihydrochloride] | 427 | 0.26 | 0.15 | 1.17 | < 0.02 | 48 | 92 | – | –
N[C@H]1CC[C@H](Nc2nc(NC3CCN(C(=O)c4cnc5ccccc5n4)CC3)c3ncn(C4CCCC4)c3n2)CC1 [compound 4, trans-1-{4-[2-(4-Amino-cyclohexylamino)-9-cyclopentyl-9H-purin-6-ylamino]-piperidin-1-yl}-1-quinoxalin-2-yl-methanone dihydrochloride] | 641 | 0.7 | 0.33 | 0.72 | 0.16 | 197 | 339 | – | –
N[C@H]1CC[C@H](Nc2nc(NC3CCN(C(=O)c4ccc5c(c4)OCO5)CC3)c3ncn(C4CCCC4)c3n2)CC1 [compound 5, trans-1-{4-[2-(4-Amino-cyclohexylamino)-9-cyclopentyl-9H-purin-6-ylamino]-piperidin-1-yl}-1-benzo[1,3]dioxol-5-yl-methanone dihydrochloride] | – | 0.43 | 0.27 | 0.66 | < 0.02 | – | – | – | –
N[C@H]1CC[C@H](Nc2nc(NC3CCN(C(=O)c4cccc(Cl)c4)CC3)c3ncn(C4CCCC4)c3n2)CC1 [compound 6, trans-1-{4-[2-(4-Amino-cyclohexylamino)-9-cyclopentyl-9H-purin-6-ylamino]-piperidin-1-yl}-1-(3-chloro-phenyl)-methanone dihydrochloride] | 87 | – | 0.24 | – | < 0.02 | 160 | 201 | 0.44 | 1.2
COc1ccccc1C(=O)N1CCC(Nc2nc(N[C@H]3CC[C@H](N)CC3)nc3c2ncn3C2CCCC2)CC1 [compound 7, trans-1-{4-[2-(4-Amino-cyclohexylamino)-9-cyclopentyl-9H-purin-6-ylamino]-piperidin-1-yl}-1-(2-methoxy-phenyl)-methanone dihydrochloride] | 96 | 1.34 | 1.11 | 2.26 | < 0.02 | 399 | 487 | – | –
COc1ccc(C(=O)N2CCC(Nc3nc(N[C@H]4CC[C@H](N)CC4)nc4c3ncn4C3CCCC3)CC2)cc1 [compound 8, trans-1-{4-[2-(4-Amino-cyclohexylamino)-9-cyclopentyl-9H-purin-6-ylamino]-piperidin-1-yl}-1-(4-methoxy-phenyl)-methanone dihydrochloride] | 711 | 0.75 | 0.18 | 0.86 | 0.06 | 74 | 137 | – | –
N[C@H]1CC[C@H](Nc2nc(NC3CCN(C(=O)c4cccs4)CC3)c3ncn(C4CCCC4)c3n2)CC1 [compound 10, trans-1-{4-[2-(4-Amino-cyclohexylamino)-9-cyclopentyl-9H-purin-6-ylamino]-piperidin-1-yl}-1-thiophen-2-yl-methanone dihydrochloride] | 761 | 0.8 | 0.14 | 1.24 | < 0.02 | 49 | 57 | – | –
COC(=O)c1ccc(C(=O)N2CCC(Nc3nc(N[C@H]4CC[C@H](N)CC4)nc4c3ncn4C3CCCC3)CC2)cc1 [compound 11, trans-4-(1-{4-[2-(4-Amino-cyclohexylamino)-9-cyclopentyl-9H-purin-6-ylamino]-piperidin-1-yl}-methanoyl)-benzoic acid methyl ester dihydrochloride] | 620 | 0.57 | 0.39 | 0.72 | 0.27 | 46 | 78 | – | –
N[C@H]1CC[C@H](Nc2nc(NC3CCN(C(=O)COc4ccccc4)CC3)c3ncn(C4CCCC4)c3n2)CC1 [compound 28, trans-1-{4-[2-(4-Amino-cyclohexylamino)-9-cyclopentyl-9H-purin-6-ylamino]-piperidin-1-yl}-2-phenoxy-ethanone dihydrochloride] | 140 | 0.21 | 0.21 | 0.22 | 0.09 | 20 | 52 | – | –
N[C@H]1CC[C@H](Nc2nc(NC3CCN(C(=O)COc4ccc(Cl)cc4)CC3)c3ncn(C4CCCC4)c3n2)CC1 [compound 31, trans-1-{4-[2-(4-Amino-cyclohexylamino)-9-cyclopentyl-9H-purin-6-ylamino]-piperidin-1-yl}-2-(4-chloro-phenoxy)-ethanone dihydrochloride] | 2040 | 0.17 | 0.19 | 0.16 | 0.04 | 105 | 5 | – | –
N[C@H]1CC[C@H](Nc2nc(NC3CCN(C(=O)/C=C/c4cccc(C(F)(F)F)c4)CC3)c3ncn(C4CCCC4)c3n2)CC1 [compound 44, trans-(E)-1-{4-[2-(4-Amino-cyclohexylamino)-9-cyclopentyl-9H-purin-6-ylamino]-piperidin-1-yl}-3-(3-trifluoromethyl-phenyl)-propenone dihydrochloride] | – | 0.22 | 0.53 | 0.29 | 0.03 | – | 76 | – | –
CC(C)[C@@H]1CC[C@@H](C)C[C@H]1OC(=O)N1CCC(Nc2nc(N[C@H]3CC[C@H](N)CC3)nc3c2ncn3C2CCCC2)CC1 [compound 86, trans-4-[2-(4-Amino-cyclohexylamino)-9-cyclopentyl-9H-purin-6-ylamino]-piperidine-1-carboxylic acid (1R,2S,5R)-2-isopropyl-5-methyl-cyclohexyl ester dihydrochloride] | – | 0.52 | 0.4 | 0.69 | 0.29 | – | – | – | –
